The test system of series [1] is cat eyes. Put plainly: Irritant effect in cat eyes (behavioural model, degree of eyelid closure). It is filed as in vivo. To be noted: for irritant effect in words, compared to PGE1-isopropyl ester: even at doses 1000 times higher than PGE1-isopropyl ester. The procedure:
(§1) The effect of the test compounds on cavernous tissue was tested using penile tissue. As mentioned previously both in the male and female the genitals contain cavernous tissue, and the penile tissue can therefore be used as model for genital cavernous tissue. The general blood vessel relaxing effect of the test compounds was studied by investigating the immediate blood pressure decrease in rats upon intravenous infusion of the test compounds. The acute drop in blood pressure reflects a peripheral vasodilation in the animals brought about by the test compounds. The general irritative effect of the test compounds was studied in the cat eye which is very sensitive to noxious stimuli.
The irritant effect of the prostaglandin analogues was tested using a behavioural model in cats. In this model the irritant effect on the eye is studied by registering the degree of eyelid closure and the behaviour of the animals. Compounds that cause discomfort and pain in the eye cause the animals to close their eyes. The analogues were applied as carboxylic acid esters, to enhance bioavailability, topically on the eye as a single dose at different dose levels. The animals were then followed for several hours at regular intervals. Each compound and dose was tested on a group of 3-6 cats. At least 3 days elapsed between two consecutive tests on the same animals. An arbitrary scale from 0 (absence of irritation) to 3 (marked irritation), with half steps was used.

Series [2] relates to cat eye. In words: Intraocular pressure in cats by pneumatonometry after topical administration. To be noted: 1 hour after topical administration; 3 cats, local anaesthesia; before treatment 16.3+/−0.9 mmHg; control eyes 15.7+/−0.7. It is filed as in vivo. The procedure: To confirm that 19R-OH-PGE2-methyl ester, which is more hydrophilic than PGE1-isopropyl ester, indeed penetrates into the cornea and the intraocular parts of the eye we measured the intraocular pressure in 3 cats under local anaesthesia before and 1 hour after topical administration of the prostaglandin to the eye. The intraocular pressure was measured by pneumatonometry. One eye was treated with the test compound and the other eye received the vehicle only. In the eyes treated topically with 19R-OH-PGE2-methyl ester the intraocular pressure decreased from 16.3+/−0.9 mmHg to 12.7+/−1.2 mmHg, whereas it was 16.3+/−0.9 mmHg and 15.7+/−0.7 mmHg in the control eyes at the same time points. It is well known that prostaglandins reduce the intraocular pressure in cats (Bito et al., 1989), and it can thus be taken as an evidence that the drug has penetrated into the eye. […] Thus the absence of pain and irritation after administration of 18RS-OH-PGE2, 19R-OH-PGE2 and 20-OH-PGE2 cannot be explained en the basis of increased hydrophilicity and poor bioavailability.

For series [3], the system named is rabbit penile blood vessels. In words: Vasorelaxation of isolated rabbit penile blood vessel ring segments in a small vessel myograph, normalized to papaverine. The format is cell-based. To be noted: FIG. 2; precontracted with 10^−6 M norepinephrine. The protocol:
To study the effect of the PGE1 and […]-OH-PGE2 on the penile vasculature, penile blood vessels of the rabbit were isolated and mounted as ring segments in a small vessel myograph (J.P. Trading, Denmark) containing a solution consisting of NaCl 119 mM, KCl 4.7 mM, CaCl2 1.5 mM, MgSO4 1.17 mM, KH2PO4 1.18 mM, NaHCO3 25 mM, EDTA 0.027 mM and glucose 11 mM. The solution also contained indomethacin at a final concentration of about 3 μM, and was continuously bubbled by 95% O2 and 5%CO2. The temperature was kept constant at 37° C. The vessels were stretched and then precontracted using 10^-6 M norepinephrine, and the vasorelaxant effect of the prostaglandin analogues was normalized by comparing it to that of papaverine in the same preparation. Cumulative concentration-response curves were constructed for the analogues.

The test system of series [4] is rabbit eye. To be noted: rabbits; Hall and Jaitly, 1977; cited from earlier work.
The test system of series [5] is human corpus cavernosum tissue. In words: Relaxation of isolated human penile cavernous tissue precontracted with norepinephrine, normalized to carbachol. The format is cell-based. To be noted: FIG. 1, parallel curves; about half to one third as potent as PGE1. The procedure:
as §1
Human penile cavernous tissue was obtained fresh from surgery, and representative tissue samples were mounted in smooth muscle tissue baths containing a modified Kreb's solution consisting of NaCl 119 mM, KCl 4.6 mM, MgCl2 1.2 mM, NaH2PO4 1.2 mM, NaHCO3 15 mM, CaCl2 1.5 mM and glucose 11 mM. The solution also contained indomethacin at a final concentration of about 3 μM. The solution was continuously bubbled by 95% O2 and 5% CO2, and the temperature was kept at 37° C. […]

As to `CCC(O)CC[C@H](O)/C=C/[C@H]1[C@H](O)CC(=O)[C@@H]1C/C=C\CCCC(=O)OC` (stereo partly drawn) [18RS-OH—PGE2-me, 18RS-hydroxy PGE2 methyl ester], the “irritant effect in words, compared to PGE1-isopropyl ester” value in series [1] was “no or markedly reduced irritant effect”.
As to `COC(=O)CCC/C=C\C[C@H]1C(=O)C[C@@H](O)[C@@H]1/C=C/[C@@H](O)CCC[C@@H](C)O` [19R-OH—PGE2-me, 19-R-hydroxy-prostaglandin E2-methyl ester], the intraocular pressure in series [2] is reported as 12.7+/−1.2 mmHg. Besides, the “irritant effect in words, compared to PGE1-isopropyl ester” value in series [1] is on record as “no or markedly reduced irritant effect”.
Take `C[C@@H](O)CCC[C@H](O)/C=C/[C@H]1[C@H](O)CC(=O)[C@@H]1C/C=C\CCCC(=O)O` [19R-OH-PGE2, 19R-hydroxy-prostaglandin E2]: the “vasodilatory effect (efficacy and potency, PGE1 versus 19R-OH-PGE2)” value in series [3] is “the same efficacy in inducing vasodilatation and were also about equipotent”. In series [4], the “irritant effect on ocular structures” value is given as “inducing swelling of the ocular structures” and the lid closure result is listed as “does not cause lid closure”. In addition, the “irritation by swelling of the ocular structures” value in series [1] (cat eye) is reported as “no evidence of such irritation”. Besides, the “factor by which concentration-response curve differs from PGE1 (less potent)” value in series [5] is given as 2-3.
For the compound `CCCCC[C@H](O)/C=C/[C@H]1[C@H](O)CC(=O)[C@@H]1CCCCCCC(=O)O` [PGE1, reference compound], the “vasodilatory effect (efficacy and potency, PGE1 versus 19R-OH-PGE2)” value in series [3] is “the same efficacy in inducing vasodilatation and were also about equipotent”.

The record behind these values is US6562868B1, “Method for treatment of female sexual dysfunction” (Synphora AB, priority 1999, dated 2003).
